Assay [1] relates to SKBR3 (PI3Kα-Wild Type) cell line. The experiment in a line: HTRF phospho-AKT(S473) cell assay in SKBR3 cells. The assay is classed as cell-based, human. As to conditions: Homo sapiens, SK-BR-3, 2 hours compound incubation, PDGF-BB stimulated. An outline of the steps: (§1)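 T47D: RPMI + 10% FBS + 0.2 units/mL insulin, top 5 μM. SKBR3: McCoy's 5A + 10% FBS, top 10 μM, 70 ng/ml PDGF-BB last 15 min. Both: 12-pt 1:3, 2 h, 37° C, max 0.5% DMSO; HTRF pAKT(S473); IC50.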
Background: Time-resolved FRET reads energy transfer from a long-lived donor to a nearby acceptor.

For assay [2], the system named is T47D (PI3Kα-H1047R) cell line. As to the kind of experiment: HTRF phospho-AKT(S473) cell assay in T47D cells. As to conditions: Homo sapiens, 2 hours compound incubation. Type of assay: cell-based, human. An outline of the steps:
as §1

Setting [3] is: HTRF phospho-AKT(S473), SKBR3 (PI3Kα-Wild Type) cells.
Where [4] appears, read: HTRF phospho-AKT(S473), T47D (PI3Kα-H1047R) cells.
Setting [5] is: SKBR3 (PI3Kα-Wild Type) cells, HTRF phospho-AKT(S473).
Where [6] appears, read: T47D (PI3Kα-H1047R) cells, HTRF phospho-AKT(S473).

SMILES strings stand for the structures.

The IC50 is the midpoint of a concentration-inhibition curve. A high value points to a need for much substance. Turning to `Cc1cc([C@@H](C)Nc2ccc(Cl)nc2C(=O)NS(C)(=O)=O)c2nc(N3C[C@H]4C[C@@H](C3)C4c3n[nH]cc3F)n(C)c(=O)c2c1` (mixture of isomers) [Compound 650, 6-chloro-3-(((1R)-1-(2-((1R,5S)-6-(4-fluoro-1H-pyrazol-3-yl)-3-azabicyclo[3.1.1]heptan-3-yl)-3,6-dimethyl-4-oxo-3,4-dihydroquinazolin-8-yl)ethyl)amino)-N-(methylsulfonyl) picolinamide], the values for the IC50 in assay [1] (setting [3]) and in assay [2] (setting [4]) were not below 5000 nM and 250 to 500 nM, respectively.
The corresponding values for `Cc1cc([C@@H](C)Nc2ccc(Cl)nc2C(=O)NS(C)(=O)=O)c2nc(N3Cc4cnc(C)cc4C3)n(C)c(=O)c2c1` [Compound 516, (R)-6-chloro-3-((1-(3,6-dimethyl-2-(6-methyl-1,3-dihydro-2H-pyrrolo[3,4-c]pyridin-2-yl)-4-oxo-3,4-dihydroquinazolin-8-yl)ethyl)amino)-N-(methylsulfonyl) picolinamide] are 1000 to 5000 nM and less than 250 nM.
As to `[2H]C([2H])([2H])n1cc(-c2ccc(-c3nc4c([C@@H](C)Nc5ccc(Cl)nc5C(=O)NS(C)(=O)=O)cc(C)cc4c(=O)n3C)cn2)cn1` [Compound 855, (R)-6-chloro-3-((1-(3,6-dimethyl-2-(6-(1-(methyl-d3)-1H-pyrazol-4-yl)pyridin-3-yl)-4-oxo-3,4-dihydroquinazolin-8-yl)ethyl)amino)-N-(methylsulfonyl) picolinamide], the IC50 is 1000 to 5000 nM in assay [1] (SKBR3 (PI3Kα-Wild Type) cell line, phospho-AKT(S473) HTRF) and less than 250 nM in assay [2] (T47D (PI3Kα-H1047R) cell line, phospho-AKT(S473) HTRF).
`Cc1cc([C@@H](C)Nc2ccc(Cl)nc2C(=O)NS(C)(=O)=O)c2nc(N3CCO[C@@H](c4cnn(C)c4)C3)n(C)c(=O)c2c1` (relative stereo) [Compound 314, 6-chloro-3-(((R)-1-(3,6-dimethyl-2-((R*)-2-(1-methyl-1H-pyrazol-4-yl)morpholino)-4-oxo-3,4-dihydroquinazolin-8-yl)ethyl)amino)-N-(methylsulfonyl) picolinamide]: the IC50 in assay [1] (setting [5]) was not below 5000 nM; in assay [2] (setting [6]), less than 250 nM.
The corresponding values for `Cc1cc([C@@H](C)Nc2ccc(Cl)nc2C(=O)NS(C)(=O)=O)c2nc(N3Cc4cn(-c5ccc(C#N)cn5)nc4C3)n(C)c(=O)c2c1` [Compound 219, (R)-6-chloro-3-((1-(2-(2-(5-cyanopyridin-2-yl)-2,6-dihydropyrrolo[3,4-c]pyrazol-5(4H)-yl)-3,6-dimethyl-4-oxo-3,4-dihydroquinazolin-8-yl)ethyl)amino)-N-(methylsulfonyl) picolinamide] are 1000 to 5000 nM and less than 250 nM.
On to `Cc1cc([C@@H](C)Nc2ccc(Cl)nc2C(=O)NS(C)(=O)=O)c2nc(N3[C@@H]4CC[C@H]3C[C@H](n3cc(C)cn3)C4)n(C)c(=O)c2c1` [Compound 481, 6-chloro-3-(((R)-1-(3,6-dimethyl-2-((1R,3S,5S)-3-(4-methyl-1H-pyrazol-1-yl)-8-azabicyclo[3.2.1]octan-8-yl)-4-oxo-3,4-dihydroquinazolin-8-yl)ethyl)amino)-N-(methylsulfonyl) picolinamide], for which the IC50 in assay [1] (setting [3]) lay in the range of 1000 to 5000 nM; in assay [2] (setting [4]) it was 250 to 500 nM.
Regarding `[2H]C([2H])([2H])n1ccc(C2CCN(c3nc4c([C@@H](C)Nc5ccc(Cl)nc5C(=O)NS(C)(=O)=O)cc(C)cc4c(=O)n3C)CC2)n1` [Compound 746, (R)-6-chloro-3-((1-(3,6-dimethyl-2-(4-(1-(methyl-d3)-1H-pyrazol-3-yl)piperidin-1-yl)-4-oxo-3,4-dihydroquinazolin-8-yl)ethyl)amino)-N-(methylsulfonyl) picolinamide], the IC50 was not below 5000 nM in assay [1] (setting [3]) and less than 250 nM in assay [2] (setting [4]).
For `Cc1cc([C@@H](C)Nc2ccc(Cl)nc2C(=O)NS(C)(=O)=O)c2nc(-c3ccc(O[C@H]4CCN(C)CC4(F)F)nc3)n(C)c(=O)c2c1` [Compound 281, 6-chloro-3-(((R)-1-(2-(6-(((S)-3,3-difluoro-1-methylpiperidin-4-yl)oxy)pyridin-3-yl)-3,6-dimethyl-4-oxo-3,4-dihydroquinazolin-8-yl)ethyl)amino)-N-(methylsulfonyl) picolinamide], the IC50 was 1000 to 5000 nM in assay [1] (setting [5]) and less than 250 nM in assay [2] (setting [6]).
Take `Cc1cc([C@@H](C)Nc2ccc(Cl)nc2C(=O)NS(C)(=O)=O)c2nc(N3Cc4cn(-c5ccccn5)nc4C3)n(C)c(=O)c2c1` [Compound 688, (R)-6-chloro-3-((1-(3,6-dimethyl-4-oxo-2-(2-(pyridin-2-yl)-2,6-dihydropyrrolo[3,4-c]pyrazol-5(4H)-yl)-3,4-dihydroquinazolin-8-yl)ethyl)amino)-N-(methylsulfonyl) picolinamide]: the concentration for half-maximal inhibition (IC50) in assay [1] (setting [3]) was not below 5000 nM; in assay [2] (setting [4]), 250 to 500 nM.
Taken in the same sequence, the figures for `Cc1cc([C@@H](C)Nc2ccc(Cl)nc2C(=O)NS(C)(=O)=O)c2nc(N3CCN(c4ccc(F)cn4)CC3)n(C)c(=O)c2c1` [Compound 574, (R)-6-chloro-3-((1-(2-(4-(5-fluoropyridin-2-yl)piperazin-1-yl)-3,6-dimethyl-4-oxo-3,4-dihydroquinazolin-8-yl)ethyl)amino)-N-(methylsulfonyl) picolinamide] were 1000 to 5000 nM and 250 to 500 nM.
`COCCn1ncc(F)c1C1CCN(c2nc3c([C@@H](C)Nc4ccc(Cl)nc4C(=O)NS(C)(=O)=O)cc(C)cc3c(=O)n2C)CC1` [Compound 472, (R)-6-chloro-3-((1-(2-(4-(4-fluoro-1-(2-methoxyethyl)-1H-pyrazol-5-yl)piperidin-1-yl)-3,6-dimethyl-4-oxo-3,4-dihydroquinazolin-8-yl)ethyl)amino)-N-(methylsulfonyl) picolinamide]: the IC50 in assay [1] (setting [3]) was not below 5000 nM; in assay [2] (setting [4]), less than 250 nM.
With `Cc1cc([C@@H](C)Nc2ccc(Cl)nc2C(=O)NS(C)(=O)=O)c2nc(N3CCC(n4cc5ccccc5n4)CC3)n(C)c(=O)c2c1` [Compound 198, (R)-3-((1-(2-(4-(2H-indazol-2-yl)piperidin-1-yl)-3,6-dimethyl-4-oxo-3,4-dihydroquinazolin-8-yl)ethyl)amino)-6-chloro-N-(methylsulfonyl) picolinamide], the IC50 was 1000 to 5000 nM in assay [1] (setting [5]) and less than 250 nM in assay [2] (setting [6]).
Consider `Cc1cc([C@@H](C)Nc2ccc(Cl)nc2C(=O)NS(C)(=O)=O)c2nc(N3CCN(c4ccc(CC#N)cn4)CC3)n(C)c(=O)c2c1` [Compound 206, (R)-6-chloro-3-((1-(2-(4-(5-(cyanomethyl)pyridin-2-yl)piperazin-1-yl)-3,6-dimethyl-4-oxo-3,4-dihydroquinazolin-8-yl)ethyl)amino)-N-(methylsulfonyl) picolinamide], for which the IC50 in assay [1] (setting [5]) is 1000 to 5000 nM; in assay [2] (setting [6]) it was less than 250 nM.
Consider `[2H]C([2H])([2H])n1cc2cc(-c3nc4c([C@@H](C)Nc5ccc(Cl)nc5C(=O)NS(C)(=O)=O)cc(C)cc4c(=O)n3C)ccc2n1` [Compound 817, (R)-6-chloro-3-((1-(3,6-dimethyl-2-(2-(methyl-d3)-2H-indazol-5-yl)-4-oxo-3,4-dihydroquinazolin-8-yl)ethyl)amino)-N-(methylsulfonyl) picolinamide], for which the IC50 is 1000 to 5000 nM in assay [1] (setting [3]) and less than 250 nM in assay [2] (setting [4]).
Consider `Cc1cc([C@@H](C)Nc2ccc(Cl)nc2C(=O)NS(C)(=O)=O)c2nc(-c3ccc(Nc4cnn(C)c4)c(F)c3)n(C)c(=O)c2c1` [Compound 806, (R)-6-chloro-3-((1-(2-(3-fluoro-4-((1-methyl-1H-pyrazol-4-yl)amino)phenyl)-3,6-dimethyl-4-oxo-3,4-dihydroquinazolin-8-yl)ethyl)amino)-N-(methylsulfonyl) picolinamide], for which the values for the IC50 in assay [1] (setting [3]) and in assay [2] (setting [4]) were 1000 to 5000 nM and less than 250 nM, respectively.
Take `Cc1cc([C@@H](C)Nc2ccc(Cl)nc2C(=O)NS(C)(=O)=O)c2nc(N3[C@@H]4CC[C@H]3C[C@@H](c3cnc(C)nc3)C4)n(C)c(=O)c2c1` [Compound 299, 6-chloro-3-(((R)-1-(3,6-dimethyl-2-((1R,3R,5S)-3-(2-methylpyrimidin-5-yl)-8-azabicyclo[3.2.1]octan-8-yl)-4-oxo-3,4-dihydroquinazolin-8-yl)ethyl)amino)-N-(methylsulfonyl) picolinamide]: the IC50 in assay [1] (setting [5]) is 1000 to 5000 nM; in assay [2] (setting [6]) it was less than 250 nM.
For the molecule `Cc1cc([C@@H](C)Nc2ccc(Cl)nc2C(=O)NS(C)(=O)=O)c2nc(N3CCC[C@@H](c4ccncc4)C3)n(C)c(=O)c2c1` (relative stereo) [Compound 207, 6-chloro-3-(((R)-1-(3,6-dimethyl-4-oxo-2-((R*)-3-(pyridin-4-yl)piperidin-1-yl)-3,4-dihydroquinazolin-8-yl)ethyl)amino)-N-(methylsulfonyl) picolinamide], the IC50 is 1000 to 5000 nM in assay [1] (setting [5]) and less than 250 nM in assay [2] (setting [6]).
With `Cc1cnc([C@@H]2CCCN(c3nc4c([C@@H](C)Nc5ccc(Cl)nc5C(=O)NS(C)(=O)=O)cc(C)cc4c(=O)n3C)C2)nc1` (relative stereo) [Compound 625, 6-chloro-3-(((R)-1-(3,6-dimethyl-2-((R*)-3-(5-methylpyrimidin-2-yl)piperidin-1-yl)-4-oxo-3,4-dihydroquinazolin-8-yl)ethyl)amino)-N-(methylsulfonyl) picolinamide], the IC50 in assay [1] (setting [3]) is not below 5000 nM; in assay [2] (setting [4]), 250 to 500 nM.

These data come from US12281122B1, “PI3K inhibitors” (Cogent Biosciences, Inc., priority 2023, dated 2025).
